Where “and” joins values, the source holds several entries; their conditions need not be identical. Identical values can stand only once. Like-named read-outs stand apart in the source and are kept apart here. Where only a bound is given, the exact number is not on record here.

Assay [1] deals with Bacillus subtilis ATCC 6633. The assay is described as follows: MIC determination. Type of assay: cell-based. On the procedure: (§1) S2 Antibacterial activity
(§2) The antimicrobial activity of the compounds was evaluated by determining their respective MIC values towards two Gram–(–) (Escherichia coli NCTC 29212 (E. coli) and Xanthomonas campestris ATCC 1395 (X. campestris)) and two Gram–(+) (Staphylococcus aureus ATCC 6538 (S. aureus) and Bacillus subtilis ATCC 6633 (B. subtilis)) bacterial species. Cultures of these microbial strains were grown on a rich selective agar medium and stored at 4°C. The selective media used were Nutrient Agar or Broth for B. subtilis and S. aureus, Yeast Mold Agar or Broth for X. campestris and Luria Agar or Broth for E. coli. Cells picked from the surface of the stored cultures were used to initiate liquid pre–cultures of the same selective medium at an initial turbidity of roughly 1 McFarland unit. Pre–cultures were incubated for 24 h in a rotary shaking incubator and subsequently they were used to inoculate the test cultures used for the determination of MIC at an initial turbidity of 0.5 McFarland units. The test cultures consisted of Mueller –Hinton broth (Deben Diagnostics Ltd) containing different concentrations of the compounds.
(§3) Different concentrations were achieved as follows: the compounds were freshly dissolved in DMSO to a concentration of 1 mg mL–1 and they were diluted with DMSO, using the method of progressive double dilution. Therefore, working solutions with decreasing concentrations of the compounds under investigation were achieved. The working solutions were subsequently diluted to the final desired concentration by addition to the growth medium at a proportion of 2:98. MIC values were determined as the lowest concentrations of the tested compounds that inhibited visible growth of each respective organism after a 24 h incubation [ S3]. Bacterial growth was determined by measuring the turbidity of appropriately diluted cultures at 600 nm with reference to equally diluted sterile growth medium and the inhibition achieved was calculated by comparing the turbidity of each culture to the average of the turbidity of three non–inhibited cultures. All test cultures were grown in triplicates and for the determination of MIC, growth had to be inhibited in at least two cultures of the triplicate. Incubation temperature at all stages was 37°C except for X. campestris that was cultivated at 28°C [S4].

In assay [2] the test system is Escherichia coli NCTC 29212. The assay is described as follows: MIC determination. Type of assay: cell-based. On the procedure:
as §1, §2, §3

Assay [3] has as its system Staphylococcus aureus ATCC 6538. Briefly: MIC determination. Type of assay: cell-based. The method, then:
as §1, §2, §3

For assay [4], the system named is Xanthomonas campestris ATCC 1395. The assay is described as follows: MIC determination. The format is cell-based. The following applies: Xanthomonas campestris, ATCC1395, 24 h, read-out: MIC X. campestris. The method, then: as §1, §2, §3
The conditions of assay [5]: cited from earlier work.
For assay [6] the following is noted: cited from earlier work. This is another data set of the same source.
For assay [7] the following is noted: cited from earlier work. This is another data set of the same source.
The target in a further assay is CT DNA. The following applies: cited from earlier work.
Another assay has as its system EB-DNA adduct (CT DNA). The following applies: cited from earlier work.
The target in assay [8] is T1, BSA (Bos taurus, UniProt P02769).
T1 construct: purchased Sigma-Aldrich Co
To be noted: cited from earlier work.

Assay [9] deals with T2, HSA (Homo sapiens, UniProt P02768).
T2 construct: purchased Sigma-Aldrich Co
The following applies: cited from earlier work.

The target in assay [10] is T1, BSA. To be noted: cited from earlier work. This is another data set of the same source.
The target of assay [11] is T2, HSA. To be noted: cited from earlier work. The source holds these as a separate data set.
A further assay is described as follows: DPPH radical scavenging. The following applies: compound 0.1 mM. On the procedure: (§4) S1 Antioxidant biological assay
The antioxidant activity of the compounds was evaluated via their ability to scavenge in
vitro free radicals such as DPPH and ABTS and to reduce H2O2. All the experiments were carried
S1.1 Determination of the reducing activity of the stable radical DPPH
To an ethanolic solution of DPPH (0.1 mM) an equal volume solution of the compounds
(0.1 mM) in ethanol was added. Absolute ethanol was also used as control solution. The absorbance
at 517 nm was recorded at room temperature after 30 and 60 min, in order to examine the possible
existence of a potential time–dependence of the DPPH radical scavenging activity [S1]. The DPPH–
scavenging activity of the compounds was expressed as the percentage reduction of the absorbance
values of the initial DPPH solution (DPPH%). NDGA and BHT were used as reference compounds. […]
A general note: The DPPH test is a chemical assay of radical scavenging.

Assay [12] in a line: Reduction of hydrogen peroxide. To be noted: compound 0.1 mM. The method, then: as §4
(§5) The antioxidant activity of the compounds was evaluated via their ability to scavenge in […]
(§6) vitro free radicals such as DPPH and ABTS and to reduce H2O2. […]
S1.3 Reduction of hydrogen peroxide
The ability of the compounds to reduce hydrogen peroxide (H2O2) was estimated according […]
to the method described in the literature [S2]. The reaction mixture contained 20 μL of each of the […]
tested compounds (0.1 mM) and 5 μL H 2O2 solution (40 mM) in phosphate buffer (50 mM, pH 7.4).
The absorbance was measured at 230 nm after 10 min. The antioxidant activity (reduction of […]

Assay [13] has as its system S. aureus, B. subtilis, E. coli, X. campestris. The assay is described as follows: MIC stated for all tested bacterial strains. The following applies: all tested microbes. Type of assay: cell-based. On the procedure: as §1, §2, §3
Assay [14] is described as follows: ABTS radical cation scavenging. To be noted: compound 0.1 mM. The method, then:
as §4, §5, §6
S1.2 Assay of radical cation ABTS–scavenging activity
The ABTS assay was performed to determine the activity of the compounds to scavenge the […]
radical cation ABTS. Initially, a water solution of ABTS was prepared (2 mM). ABTS radical cation […]
(ABTS+·) was produced by the reaction of ABTS stock solution with potassium persulfate (0.17 […]
mM) and the mixture was stored in the dark at room temperature for 12–16 h before its use. The […]
ABTS was oxidized incompletely because the stoichiometric reaction ratio of ABTS and potassium […]
persulfate is 1:0.5. The absorbance became maximal and stable only after more than 6 h of reaction […]
although the oxidation of the ABTS started immediately. The radical was stable in this form for […]
more than 2 days when allowed to stand in the dark at room temperature. Afterwards, the ABTS+· […]
solution was diluted in ethanol to an absorbance of 0.70 at 734 nm and 10 μL of diluted compounds or standards (0.1 mM) in DMSO were added. The absorbance was recorded out exactly 1 min after […]
initial mixing [S1]. The ABTS radical scavenging activity was expressed as the percentage inhibition of the absorbance of the initial ABTS solution (ABTS%). […]

T2 sequence (P02768 25-609): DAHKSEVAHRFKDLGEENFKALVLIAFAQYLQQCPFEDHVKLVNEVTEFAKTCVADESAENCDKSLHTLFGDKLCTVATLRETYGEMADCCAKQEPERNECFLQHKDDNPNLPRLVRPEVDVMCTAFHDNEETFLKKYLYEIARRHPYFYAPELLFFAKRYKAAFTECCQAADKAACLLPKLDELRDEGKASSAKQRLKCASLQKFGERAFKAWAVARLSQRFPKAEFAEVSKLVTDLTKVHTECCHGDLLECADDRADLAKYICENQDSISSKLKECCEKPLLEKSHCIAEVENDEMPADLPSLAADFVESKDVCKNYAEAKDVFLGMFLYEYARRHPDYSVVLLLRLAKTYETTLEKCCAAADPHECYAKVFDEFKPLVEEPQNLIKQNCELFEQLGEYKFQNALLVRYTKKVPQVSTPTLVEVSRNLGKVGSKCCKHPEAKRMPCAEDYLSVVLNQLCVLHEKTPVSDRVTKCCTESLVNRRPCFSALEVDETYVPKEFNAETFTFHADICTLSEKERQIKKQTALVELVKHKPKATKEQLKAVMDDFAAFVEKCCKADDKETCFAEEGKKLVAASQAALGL
T1 sequence (P02769 25-607): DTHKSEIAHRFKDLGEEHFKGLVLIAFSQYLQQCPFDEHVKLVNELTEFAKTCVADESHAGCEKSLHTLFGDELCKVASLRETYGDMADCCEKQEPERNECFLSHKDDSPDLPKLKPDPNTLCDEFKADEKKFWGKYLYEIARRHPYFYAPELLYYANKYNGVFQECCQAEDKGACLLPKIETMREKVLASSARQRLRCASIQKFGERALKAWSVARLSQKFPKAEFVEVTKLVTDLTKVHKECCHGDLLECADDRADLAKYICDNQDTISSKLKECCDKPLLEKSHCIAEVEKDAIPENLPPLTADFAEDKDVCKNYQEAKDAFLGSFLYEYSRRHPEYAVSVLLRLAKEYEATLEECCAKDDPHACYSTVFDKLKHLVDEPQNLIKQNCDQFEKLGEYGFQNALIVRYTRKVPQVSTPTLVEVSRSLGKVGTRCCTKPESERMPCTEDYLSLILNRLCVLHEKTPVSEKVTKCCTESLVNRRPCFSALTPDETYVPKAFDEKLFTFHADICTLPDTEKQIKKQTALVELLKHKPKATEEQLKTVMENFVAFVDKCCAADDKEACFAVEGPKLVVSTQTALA

On to `O=Cc1cc(Br)cc(Br)c1O` [3,5-diBr-saloH, 3,5-dibromo-salicylaldehyde], for which the MIC in assay [1] (Bacillus subtilis, ATCC6633, 24 h, read-out: MIC B. subtilis) was 25 µg/mL and 89 µM. In [2] (Escherichia coli, NCTC29212, 24 h, read-out: MIC E. coli), the MIC is 50 µg/mL and 179 µM. In addition, the MIC in assay [3] (Staphylococcus aureus, ATCC6538, 24 h, read-out: MIC S. aureus) is 25 µg/mL and 89 µM. Further, the MIC in [4] was 25 µg/mL and 89 µM. For the same compound, in assay [5], the “DPPH% (30 min)” value is given as 7.97 ± 0.53% and the “DPPH% (60 min)” value is recorded as 10.22 ± 0.30%. The ABTS% in [6] was 16.55 ± 0.31%. In addition, the H2O2% in assay [7] is recorded as 76.05 ± 1.51%. Further, the “Kb (DNA-binding constant)” value on CT DNA is given as 3.71 (±0.14) × 10^5 M^−1. Further, in the assay on EB-DNA adduct (CT DNA), the “KSV (Stern–Volmer constant), EB-DNA” value is 3.95 (±0.10) × 10^4 M^−1; the “kq (EB-DNA quenching constant)” value was 1.72 (±0.04) × 10^12 M^−1s^−1; the “ΔΙ/Ι0 (%) EB-DNA fluorescence quenching” value is given as 46.6%. In addition, at BSA [8], the “K BSA-binding constant” value is listed as 2.97 (±0.16) × 10^6 M^−1 and the “kq BSA-quenching constant” value is reported as 3.65 (±0.25) × 10^13 M^−1 s^−1. Besides, on HSA [9], the “K HSA-binding constant” value is listed as 4.04 (±0.30) × 10^5 M^−1 and the “kq HSA-quenching constant” value is given as 1.72 (±0.06) × 10^13 M^−1 s^−1. For the same compound, on BSA [10], the “BSA-binding constant K, Marker: Ibuprofen” value was 7.11 (±0.29) × 10^5 M^−1; the “BSA-binding constant K, No Marker” value is on record as 2.97 (±0.16) × 10^6 M^−1; the “BSA-binding constant K, Marker: Warfarin” value is 2.84 (±0.10) × 10^5 M^−1. On HSA [11], the “HSA-binding constant K, Marker: Ibuprofen” value is 4.56 (±0.37) × 10^4 M^−1; the “HSA-binding constant K, No Marker” value was 4.04 (±0.30) × 10^5 M^−1; the “HSA-binding constant K, Marker: Warfarin” value is 1.23 (±0.05) × 10^5 M^−1.
Take `O=Cc1cc(Cl)cc(Cl)c1O` [3,5-diCl-saloH, 3,5-dichloro-salicylaldehyde]: the MIC in [1] (Bacillus subtilis, ATCC6633, 24 h; read-out: MIC B. subtilis) amounted to 50 µg/mL. In assay [1] (Bacillus subtilis, ATCC6633; 24 h, value in parentheses; read-out: MIC B. subtilis), the MIC is 262 µM. The MIC in assay [2] (Escherichia coli, NCTC29212, 24 h; read-out: MIC E. coli) stood at 50 µg/mL. Moreover, in assay [2] (Escherichia coli, NCTC29212; 24 h, value in parentheses; read-out: MIC E. coli), the MIC stood at 262 µM. In assay [3] (Staphylococcus aureus, ATCC6538, 24 h; read-out: MIC S. aureus), the MIC turned out to be 50 µg/mL. Further, the MIC in assay [3] (Staphylococcus aureus, ATCC6538; 24 h, value in parentheses; read-out: MIC S. aureus) amounted to 262 µM. The MIC in assay [4] is 50 µg/mL and 262 µM. In addition, in assay [5], the “DPPH% (30 min)” value is 15.68 ± 0.15% and the “DPPH% (60 min)” value is given as 18.80 ± 0.52%. Also, the ABTS% in assay [6] is given as 84.89 ± 0.16%. The H2O2% in [7] is on record as 79.92 ± 0.34%. The “Kb (DNA-binding constant)” value at CT DNA is 5.36 (±0.15) × 10^5 M^−1. In the assay with EB-DNA adduct (CT DNA), the “KSV (Stern–Volmer constant), EB-DNA” value is recorded as 3.56 (±0.09) × 10^4 M^−1; the “kq (EB-DNA quenching constant)” value is 1.55 (±0.04) × 10^12 M^−1s^−1; the “ΔΙ/Ι0 (%) EB-DNA fluorescence quenching” value is listed as 43.2%. Besides, at BSA [8], the “K BSA-binding constant” value is reported as 1.64 (±0.10) × 10^6 M^−1 and the “kq BSA-quenching constant” value is recorded as 1.47 (±0.09) × 10^13 M^−1 s^−1. Moreover, at HSA [9], the “K HSA-binding constant” value was 6.33 (±0.14) × 10^5 M^−1 and the “kq HSA-quenching constant” value is 7.11 (±0.32) × 10^12 M^−1 s^−1. On BSA [10], the “BSA-binding constant K, Marker: Ibuprofen” value is 1.35 (±0.55) × 10^5 M^−1; the “BSA-binding constant K, No Marker” value is reported as 1.64 (±0.10) × 10^6 M^−1; the “BSA-binding constant K, Marker: Warfarin” value was 5.09 (±0.09) × 10^5 M^−1. Besides, on HSA [11], the “HSA-binding constant K, Marker: Ibuprofen” value is 1.87 (±0.08) × 10^5 M^−1; the “HSA-binding constant K, No Marker” value was 6.33 (±0.14) × 10^5 M^−1; the “HSA-binding constant K, Marker: Warfarin” value is 1.52 (±0.07) × 10^5 M^−1.
`Cc1cc(C(C)(C)C)c(O)c(C(C)(C)C)c1` [BHT, butylated hydroxytoluene, reference compound]: in the assay “DPPH radical scavenging”, the “DPPH% (30 min)” value was found to be 61.30 ± 1.16% and the “DPPH% (60 min)” value stood at 79.78 ± 1.12%.
Turning to `CC[n+]1c(-c2ccccc2)c2cc(N)ccc2c2ccc(N)cc21.[Br-]` [EB, 3,8-diamino-5-ethyl-6-phenyl-phenanthridinium bromide], the “Kb (DNA-binding constant)” value on CT DNA (classical intercalator) was 1.23 (±0.07) × 10^5 M^−1.
In [12], `O=C1O[C@H]([C@@H](O)CO)C(O)=C1O` [L-ascorbic acid, reference compound] showed an H2O2% of 60.80 ± 0.20%.
On to `CC(Cc1ccc(O)c(O)c1)C(C)Cc1ccc(O)c(O)c1` (stereo not shown) [NDGA, nordihydroguaiaretic acid, reference compound], for which, in “DPPH radical scavenging”, the “DPPH% (30 min)” value stood at 87.08 ± 0.12% and the “DPPH% (60 min)” value is 87.47 ± 0.12%.
On to `CC(=O)[O-].CC(=O)[O-].[Pd+2]` [Pd(CH3COO)2], for which the MIC in [13] is over 200 µg/mL.
Regarding `Cc1c(C)c2c(c(C)c1O)CCC(C)(C(=O)O)O2` (stereo not shown) [Trolox, 6-hydroxy-2,5,7,8-tetramethylchromane-2-carboxylic acid, reference compound], in assay [14], the ABTS% was 98.10 ± 0.48%.

The term MIC denotes the smallest concentration in the dilution series that meets the test's criterion for growth inhibition.

The values above are taken from PMC9323974, “Palladium(II) Complexes of Substituted Salicylaldehydes: Synthesis, Characterization and Investigation of Their Biological Profile” (Pharmaceuticals, 2022).
